pKi: −log10 of the molar value.

Test [1] addresses rat orexin 1 receptor (Rattus norvegicus, UniProt P56718). Description: Rat orexin 1 receptor radioligand binding. To be noted: HEK293 cells stably expressing rat orexin 1 receptor; competitive radioligand binding, apparent Ki; read-out: rOX1 Ki. On the procedure: (§1) Rat and Human Orexin 1 Receptor Radioligand Binding Studies
(§2) After centrifugation (2K×G, 5 min at 4° C.), the supernatant was aspirated and the pellets frozen and stored at −80° C. […] Each cell pellet from a 15 cm plate was resuspended in 10 mL, stored on ice, and homogenized for 45 sec prior to addition to the reactions. […] The final concentration of DMSO in the reactions is equal to or less than 0.1%. Total and nonspecific binding was determined in the absence and presence of 10 μM almorexant. The total volume of each reaction is 200 μL (20 μL of diluted compounds, 80 μL of [^3H]-(1-(5-(2-fluoro-phenyl)-2-methyl-thiazol-4-yl)-1-((S)-2-(5-phenyl-(1,3,4)oxadiazol-2-ylmethyl)-pyrrolidin-1-yl)-methanone) diluted in PBS and 100 μL of the cell suspension). […] The plates were washed 3 times by aspirating 30 ml PBS through the plates. Plates were dried in 55° C. oven for 60 min, scintillation fluid was added, and the radioactivity was counted on a Topcount (Packard).

In test [2] the target is human orexin 2 receptor (Homo sapiens (Human), UniProt O43614). Description: Human orexin 2 receptor radioligand binding. As to conditions: HEK293 stably expressing human orexin 2 receptor; [3H]-EMPA competitive binding, apparent Ki; read-out: hOX2 Ki. The procedure:
Human Orexin 2 Receptor Radioligand Binding Studies
as §2, with “sec just” for “sec”, “reactions. Competition binding experiments in 96 well polypropylene plates were performed using [^3H]-EMPA (Moraveck Corporation, specific activity=29.6 Ci/mmol), diluted to a 5 nM concentration in PBS (2 nM final concentration).” for “reactions.”, “[^3H]-EMPA” for “[^3H]-(1-(5-(2-fluoro-phenyl)-2-methyl-thiazol-4-yl)-1-((S)-2-(5-phenyl-(1,3,4)oxadiazol-2-ylmethyl)-pyrrolidin-1-yl)-methanone)”

Test [3] addresses human orexin 1 receptor (Homo sapiens, UniProt O43613). The test can be described thus: Human orexin 1 receptor radioligand binding. To be noted: CHO cells stably expressing human orexin 1 receptor; competitive radioligand binding, apparent Ki; read-out: hOX1 Ki. The procedure:
as §1, §2

Chain of human orexin 2 receptor (O43614 whole entry): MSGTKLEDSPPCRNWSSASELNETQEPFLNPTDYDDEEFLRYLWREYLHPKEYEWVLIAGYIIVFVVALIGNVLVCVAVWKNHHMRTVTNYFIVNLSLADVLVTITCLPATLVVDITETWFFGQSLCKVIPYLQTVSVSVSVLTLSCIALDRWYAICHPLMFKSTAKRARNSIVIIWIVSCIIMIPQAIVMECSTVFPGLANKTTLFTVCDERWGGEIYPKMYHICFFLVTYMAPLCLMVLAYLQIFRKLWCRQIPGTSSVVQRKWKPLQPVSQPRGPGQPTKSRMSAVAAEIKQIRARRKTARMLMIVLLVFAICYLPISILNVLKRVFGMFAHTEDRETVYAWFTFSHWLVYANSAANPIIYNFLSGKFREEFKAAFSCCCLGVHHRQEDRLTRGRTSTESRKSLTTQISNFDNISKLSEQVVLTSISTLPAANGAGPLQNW

On to `O=C(c1cc(F)ccc1-n1nccn1)N1C[C@H]2C[C@@H](Nc3ccc(C(F)(F)F)cn3)[C@@H]1C2` [Example 57, (5-fluoro-2-(2H-1,2,3-triazol-2-yl)phenyl)((1S,4S,6R)-6-((5-(trifluoromethyl)pyridin-2-yl)amino)-2-azabicyclo[2.2.1]heptan-2-yl)methanone], for which the pKi (usually the Ki on a negative log10 scale, so that one unit is a factor of ten) in test [1] was 8.22; in test [2], 6.60; in test [3] it was 8.30.
Consider `O=C(c1cc(F)ccc1-c1ncccn1)N1C[C@H]2C[C@@H](Nc3ccc(C(F)(F)F)cn3)[C@@H]1C2` [Example 58, (5-fluoro-2-(pyrimidin-2-yl)phenyl)((1S,4S,6R)-6-((5-(trifluoromethyl)pyridin-2-yl)amino)-2-azabicyclo[2.2.1]heptan-2-yl)methanone], for which the results for the negative-log Ki (pKi) in test [1], in test [2] and in test [3] were 8.40, 6.74 and 8.70, respectively.
Consider `O=C(c1ccccc1-n1nccn1)N1C[C@H]2C[C@@H](Nc3cnc(C(F)(F)F)cn3)[C@@H]1C2` [Example 59, (2-(2H-1,2,3-triazol-2-yl)phenyl)((1S,4S,6R)-6-((5-(trifluoromethyl)pyrazin-2-yl)amino)-2-azabicyclo[2.2.1]heptan-2-yl)methanone], for which the pKi is 8.22 in test [1], 6.67 in test [2] and 8.05 in test [3].
